target: T1, human type 1 glycine transporter (GlyT1) (Homo sapiens, UniProt P48067); test: Glycine uptake inhibition experiment ([3H]glycine uptake); assay type: cell-based; conditions: GlyT1
T1 construct: T98G cells (glioma cells) expressing human type 1 glycine transporter (GlyT1) were used
T1 sequence (P48067 1-706): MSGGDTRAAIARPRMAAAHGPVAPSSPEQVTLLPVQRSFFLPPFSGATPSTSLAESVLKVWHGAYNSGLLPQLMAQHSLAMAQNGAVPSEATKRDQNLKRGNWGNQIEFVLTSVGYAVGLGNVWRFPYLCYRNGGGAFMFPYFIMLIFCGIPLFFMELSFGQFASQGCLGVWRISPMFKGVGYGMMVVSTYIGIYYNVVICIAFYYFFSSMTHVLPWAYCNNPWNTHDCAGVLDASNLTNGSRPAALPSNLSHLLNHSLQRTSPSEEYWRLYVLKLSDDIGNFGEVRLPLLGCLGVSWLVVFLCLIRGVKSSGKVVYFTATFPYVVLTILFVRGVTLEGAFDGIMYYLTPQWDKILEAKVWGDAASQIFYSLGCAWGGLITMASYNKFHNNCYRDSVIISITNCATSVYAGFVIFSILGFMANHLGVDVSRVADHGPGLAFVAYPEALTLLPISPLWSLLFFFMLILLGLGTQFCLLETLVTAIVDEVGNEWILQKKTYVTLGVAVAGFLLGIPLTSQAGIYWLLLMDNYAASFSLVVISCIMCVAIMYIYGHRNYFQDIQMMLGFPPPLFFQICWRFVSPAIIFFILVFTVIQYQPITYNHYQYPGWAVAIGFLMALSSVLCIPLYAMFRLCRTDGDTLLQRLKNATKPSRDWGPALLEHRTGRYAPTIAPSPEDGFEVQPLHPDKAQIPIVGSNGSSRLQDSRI
In short: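 T98G glioma cells expressing human GlyT1 were pretreated 10 min with compound in HEPES buffer pH 7.4 (0.2% BSA), then incubated with compound plus 250 nM final [3H]glycine for 15 min at room temperature. Intracellular radioactivity was counted after NaOH lysis; 10 μM ALX5407 defined non-specific uptake. IC50 came from 10^−9–10^−5 M curves.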

IC50 [nM] | Compound
1500 | O=C(NC(c1cccc(F)c1)C1(O)CCCC1)c1nccc(C(F)(F)F)c1Cl (single isomer, unassigned) [Compound 53, 3-chloro-N-[(3-fluorophenyl)(1-hydroxycyclopentyl)methyl]-4-(trifluoromethyl)pyridine-2-carboxamide]
900 | CCn1cc(-c2cccc(C(NC(=O)c3cc(C(F)(F)F)cnc3Cl)C3(O)CCC(F)(F)CC3)c2)cn1 (centres unmarked) [Compound 202, 2-chloro-N-{(4,4-difluoro-1-hydroxycyclohexyl)[3-(1-ethyl-1H-pyrazol-4-yl)phenyl]methyl}-5-(trifluoromethyl)pyridine-3-carboxamide]
760 | O=C(NC(c1ccccc1Cl)[C@]1(O)CC[C@@H](F)CC1)c1ccc(C(F)(F)F)nc1Cl (single isomer, unassigned) [Compound 368, 2-chloro-N-[(2-chlorophenyl)(cis-4-fluoro-1-hydroxycyclohexyl)methyl]-6-(trifluoromethyl)pyridine-3-carboxamide]
630 | O=C(NC(c1ccc(F)c(F)c1F)C1(O)CCC(F)(F)CC1)c1nccc(C(F)(F)F)c1Cl (centres unmarked) [Compound 170, 3-chloro-N-[(4,4-difluoro-1-hydroxycyclohexyl)(2,3,4-trifluorophenyl)methyl]-4-(trifluoromethyl)pyridine-2-carboxamide]
130 | O=C(NC(c1cccc(-c2cnn(CC(F)(F)F)c2)c1)C1(O)CCC(F)(F)CC1)c1nccc(C(F)(F)F)c1Cl (centres unmarked) [Compound 132, 3-chloro-N-[(4,4-difluoro-1-hydroxycyclohexyl){3-[1-(2,2,2-trifluoroethyl)-1H-pyrazol-4-yl]phenyl}methyl]-4-(trifluoromethyl)pyridine-2-carboxamide]
390 | O=C(NC(c1cccc(Cl)c1)[C@]1(O)CC[C@@H](F)CC1)c1ccnc(C(F)(F)F)c1Cl (stereo partly drawn) [Compound 163, 3-chloro-N-[(3-chlorophenyl)(cis-4-fluoro-1-hydoxycyclohexyl)methyl]-2-(trifluoromethyl)pyridine-4-carboxamide]
1100 | O=C(NC(c1ccc(F)c(F)c1F)C1(O)CCC(F)(F)CC1)c1ccnc(C(F)(F)F)c1Cl (centres unmarked) [Compound 171, 3-chloro-N-[(4,4-difluoro-1-hydroxycyclohexyl)(2,3,4-trifluorophenyl)methyl]-2-(trifluoromethyl)pyridine-4-carboxamide]
610 | Cc1cccc(Cl)c1C(=O)NC(c1cccc(F)c1Cl)[C@]1(O)CC[C@@H](F)CC1 (single isomer, unassigned) [Compound 299, 2-chloro-N-[(2-chloro-3-fluorophenyl)(cis4-fluoro-1-hydroxycyclohexyl)methyl]-6-methylbenzamide]
180 | O=C(NC(c1ccccc1F)C1(O)CCCC1)c1nccc(C(F)(F)F)c1Cl (centres unmarked) [Compound 41, 3-chloro-N-[(2-fluorophenyl)(1-hydroxycyclopentyl)methyl]-4-(trifluoromethyl)pyridine-2-carboxamide]
13 | CCn1cc(-c2cccc(C(NC(=O)c3nccc(C(F)(F)F)c3Cl)C3(O)CCCC3)c2)cn1 (single isomer, unassigned) [Compound 14, 3-chloro-N-{[3-(1-ethyl-1H-pyraozl-4-yl)phenyl](1-hydroxycyclopentyl)methyl}-4-(trifluoromethyl)pyridine-2-carboxamide]
210 | O=C(NC(c1cccc(-c2ccccn2)c1)C1(O)CCC(F)(F)CC1)c1nccc(C(F)(F)F)c1Cl (centres unmarked) [Compound 143, 3-chloro-N-{(4,4-difluoro-1-hydroxycyclohexyl)[3-(pyridin-2-yl)phenyl]methyl}-4-(trifluoromethyl)pyridine-2-carboxamide]
130 | O=C(NC(c1cccc(Cl)c1F)C1(O)CCC(F)CC1)c1ccnc(C(F)(F)F)c1Cl (single isomer, unassigned) [Compound 201, 3-chloro-N-[(3-chloro-2-fluorophenyl)(4-fluoro-1-hydroxycyclohexyl)methyl]-2-(trifluoromethyl)pyridine-4-carboxamide]
1200 | O=C(NC(c1cccc(F)c1Cl)[C@]1(O)CC[C@@H](F)CC1)c1cnc(Cl)cc1-n1nccn1 (single isomer, unassigned) [Compound 369, 6-chloro-N-[(2-chloro-3-fluorophenyl)(cis-4-fluoro-1-hydroxycyclohexyl)methyl]-4-(2H-1,2,3-triazol-2-yl)pyridine-3-carboxamide]
310 | O=C(NC(c1cccc(-n2nccn2)c1)C1(O)CCCC1)c1nccc(C(F)(F)F)c1Cl (centres unmarked) [Compound 79, 3-chloro-N-{(1-hydroxycyclopentyl)[3-(2H-1,2,3-triazol-2-yl)phenyl]methyl}-4-(trifluoromethyl)pyridine-2-carboxamide]
2800 | O=C(NC(c1cccc(Cl)c1)C1(O)CCCCC1)c1nccc(C(F)(F)F)c1Cl (single isomer, unassigned) [Compound 230, 3-chloro-N-[(3-chlorophenyl)(1-hydroxycyclohexyl)methyl]-4-(trifluoromethyl)pyridine-2-carboxamide]
150 | O=C(NC(c1cccc(Cl)n1)C1(O)CCC(F)(F)CC1)c1cc(C(F)(F)F)ncc1Cl (single isomer, unassigned) [Compound 353, 5-chloro-N-[(6-chloropyridin-2-yl)(4,4-difluoro-1-hydroxycyclohexyl)methyl]-2-(trifluoromethyl)pyridine-4-carboxamide]
100 | O=C(NC(c1cccc(F)c1F)C1(O)CCC(F)CC1)c1nccc(C(F)(F)F)c1Cl (single isomer, unassigned) [Compound 204, 3-chloro-N-[(2,3-difluorophenyl)(4-fluoro-1-hydroxycyclohexyl)methyl]-4-(trifluoromethyl)pyridine-2-carboxamide]
3500 | CS(=O)(=O)c1ccc(Cl)c(C(=O)NC(c2cccc(F)c2Cl)[C@]2(O)CC[C@@H](F)CC2)c1 (single isomer, unassigned) [Compound 296, 2-chloro-N-[(2-chloro-3-fluorophenyl)(cis-4-fluoro-1-hydroxycyclohexyl)methyl]-5-(methylsuflonyl)benzamide]
690 | O=C(NC(c1cccc(F)c1)C1(O)CCC1)c1nccc(C(F)(F)F)c1Cl (single isomer, unassigned) [Compound 66, 3-chloro-N-[(3-fluorophenyl)(1-hydroxycyclobutyl)methyl]-4-(trifluoromethyl)pyridine-2-carboxamide]
200 | O=C(NC(c1cccc(Cl)n1)[C@]1(O)CC[C@@H](F)CC1)c1nccc(C(F)F)c1Cl (single isomer, unassigned) [Compound 328, 3-chloro-N-[(6-chloropyridin-2-yl)(cis-4-fluoro-1-hydroxycyclohexyl)methyl]-4-(difluoromethyl)pyridine-2-carboxamide]
200 | O=C(NC(c1cccnc1Cl)[C@]1(O)CC[C@@H](F)CC1)c1cc(C(F)(F)F)ncc1Cl (single isomer, unassigned) [Compound 323, 5-chloro-N-[(2-chloropyridin-3-yl)(cis-4-fluoro-1-hydroxycyclohexyl)methyl]-2-(trifluoromethyl)pyridine-4-carboxamide]
3000 | O=C(NC(c1ccccc1F)C1(O)CCCC1)c1nccc(C(F)(F)F)c1Cl (single isomer, unassigned) [Compound 61, 3-chloro-N-[(2-fluorophenyl)(1-hydroxycyclopentyl)methyl]-4-(trifluoromethyl)pyridine-2-carboxamide]
320 | O=C(NC(c1cccc(Br)c1)C1(O)CCC(F)(F)CC1)c1nccc(C(F)(F)F)c1Cl (centres unmarked) [Compound 85, N-[(3-bromophenyl)(4,4-difluoro-1-hydroxycyclohexyl)methyl]-3-chloro-4-(trifluoromethyl)pyridine-2-carboxamide]
57 | O=C(NC(c1cccc(F)c1)C1(O)CCCCC1)c1nccc(C(F)(F)F)c1Cl (centres unmarked) [Compound 63, 3-chloro-N-[(3-fluorophenyl)(1-hydroxycyclohexyl)methyl]-4-(trifluoromethyl)pyridine-2-carboxamide]
220 | CCn1cc(-c2cccc(C(NC(=O)c3cccc(C(F)(F)F)c3Cl)C3(O)CCC(F)(F)CC3)c2)cn1 (single isomer, unassigned) [Compound 122, 2-chloro-N-{(4,4-difluoro-1-hydroxycyclohexyl)[3-(1-ethyl-1H-pyrazol-4-yl)phenyl]methyl}-3-(trifluoromethyl)benzamide]
1200 | O=C(NC(c1cccnc1Cl)[C@]1(O)CC[C@@H](F)CC1)c1nccc(C(F)F)c1Cl (single isomer, unassigned) [Compound 324, 3-chloro-N-[(2-chloropyridin-3-yl)(cis-4-fluoro-1-hydroxycyclohexyl)methyl]-4-(difluoromethyl)pyridine-2-carboxamide]

Reference: patent publication US20160130278A1 (TAISHO PHARMACEUTICAL CO., LTD, priority 2013, published 2016)
